Test results as given in patent US6218393A, “Anthranilic acid derivatives as multi drug resistance modulators” (priority 1997, dated 2001).
pIC50: −log10 of the molar value.

Key:
AR 1.0 cells [1] = test: Potentiation of doxorubicin toxicity: proliferation assay (sulphorhodamine B); type: cell-based, mouse
Text: (a) Selected compounds of formula (I) were examined for their ability to potentiate the toxicity of doxorubicin in AR 1.0 cells.

AR 1.0 cells [2] = test: Drug accumulation assay: daunorubicin accumulation in AR 1.0 cells; type: cell-based; details: Mus musculus, 100% = accumulation with verapamil 100 μM, 1 hr, 37° C.
How it was run: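 Daunorubicin accumulation was measured in cells plated 48 h beforehand. These were AR 1.0 cells, an MDR-resistant derivative of mouse EMT6 mammary carcinoma, cultured at 37 °C in 5% CO2 in RPMI 1640 plus 10% foetal calf serum and 2 mM glutamine.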

AR 1.0 cells [3] = test: Potentiation index with doxorubicin titration; type: cell-based, mouse; details: for Potentiation Index at RMA concentration 10 nM: Table C1, RMA 10 nM; for Potentiation Index at RMA concentration 30 nM: Table C1, RMA 30 nM; for Potentiation Index at RMA concentration 50 nM: Table C1, RMA 50 nM; for Potentiation Index at RMA concentration 100 nM: Table C1, RMA 100 nM
Protocol: The EMT6 mouse mammary carcinoma cell line and the MDR resistant subline AR 1.0 were cultured in RPMI 1640 medium containing 10% foetal calf serum and 2 mM glutamine at 37° C. in 5% CO2. Cells were passaged between 1 in 200 and 1 in 2000 in the case of the parental cell line and between 1 in 20 and 1 in 200 in the case of the MDR resistant subline, after trypsinisation (0.25% trypsin, 0.2 gl^-1, EDTA). […]
(b) Cells were cultured for four days with a titration of doxorubicin (0.263 nM-17.24 μM) in the presence of a fixed concentration of each compound. Proliferation was quantified as described by Skehen et al, loc cit. The IC50 (concentration required to reduce proliferation to 50% of the untreated controls) for doxorubicin alone and with each compound were derived and used to calculate the potentiation index (PI): [formula]

[4] = Mus musculus, 96 h, compound alone, four day proliferation, read-out: Compound Toxicity (IC50)
[5] = with fixed doxorubicin 0.34 μm, four days, 5760 min, read-out: Toxicity with Cytotoxic Agent (IC50)

SMILES | pIC50 (AR 1.0 cells [1]; [4]) | pIC50 (AR 1.0 cells [1]; [5]) | pIC50 (AR 1.0 cells [2]) | toxicity of doxorubicin alone to AR 1.0 cells (AR 1.0 cells [1]; fixed concentration 0.34 μm) | Potentiation Index at RMA concentration 10 nM (AR 1.0 cells [3]) | Potentiation Index at RMA concentration 30 nM (AR 1.0 cells [3]) | Potentiation Index at RMA concentration 50 nM (AR 1.0 cells [3]) | Potentiation Index at RMA concentration 100 nM (AR 1.0 cells [3]) | Potentiation Index at RMA concentration 300 nM (AR 1.0 cells [3]; Table C2, RMA 300 nM) | Potentiation Index at RMA concentration 500 nM (AR 1.0 cells [3]; Table C2, RMA 500 nM)
COc1cc2c(cc1OC)CN(CCNC(=O)c1cc(-c3ccccc3)ccc1NC(=O)c1ccc(C(C)C)cc1)CC2 [compound 9432, 2-(4-Isopropyl-benzoylamino)-N-[2-(6,7-dimethoxy-3,4-dihydro-1H-isoquinolin-2-yl)-ethyl]-5-phenyl-benzamide] | 4.46 | 6.70 | 5.49 | – | – | – | – | – | – | –
COc1cc2c(cc1OC)CN(CCc1ccc(NC(=O)c3ccccc3NC(=O)c3ccsc3)cc1)CC2 [compound 9492, Thiophene-3-carboxylic acid (2-{4-[2-(6,7-dimethoxy-3,4-dihydro-1H-isoquinolin-2-yl)-ethyl]-phenylcarbamoyl}-phenyl)-amide] | 5.52 | 7.70 | 6.00 | – | – | – | – | – | – | –
COc1cc2c(cc1OC)CN(CCc1ccc(NC(=O)c3ccccc3NC(=O)c3cccnc3)cc1)CC2 [compound 9482, N-(2-{4-[2-(6,7-Dimethoxy-3,4-dihydro-1H-isoquinolin-2-yl)-ethyl]-phenylcarbamoyl}-phenyl)-nicotinamide] | 4.92 | 6.66 | 6.27 | – | – | – | – | – | – | –
CCC(=O)c1cnc(C(=O)Nc2ccccc2C(=O)Nc2ccc(CCN3CCc4cc(OC)c(OC)cc4C3)cc2)cn1 [compound 9569, 5-Propionyl-pyrazine-2-carboxylic acid (2-{4-[2-(6,7-dimethoxy-3,4-dihydro-1H-isoquinolin-2-yl)-ethyl]-phenylcarbamoyl}-phenyl)-amide] | 6.72 | 8.10 | 6.03 | – | – | – | – | – | – | –
COc1cc2c(cc1OC)CN(CCc1ccc(NC(=O)c3ccccc3NC(=O)c3ccccn3)cc1)CC2 [compound 9472, Pyridine-2-carboxylic acid (2-{4-[2-(6,7-dimethoxy-3,4-dihydro-1H-isoquinolin-2-yl)-ethyl]-phenylcarbamoyl}-phenyl)-amide] | 5.19 | 6.92 | 6.30 | – | – | – | – | – | – | –
COc1cccc2c1C(=O)c1c(O)c3c(c(O)c1C2=O)C[C@@](O)(C(=O)CO)C[C@@H]3O[C@H]1C[C@H](N)[C@H](O)[C@H](C)O1 [doxorubicin, reference compound] | – | – | – | non-toxic | – | – | – | – | – | –
CCN(CCc1ccc(NC(=O)c2ccccc2NC(=O)c2cnc3ccccc3c2)cc1)Cc1ccc(OC)c(OC)c1 [compound 9636] | – | – | 6.74 | – | 2.6 | 22 | 46 | 131 | – | –
CCCCN(CCc1ccc(NC(=O)c2ccccc2NC(=O)c2cnc3ccccc3c2)cc1)Cc1ccc(OC)c(OC)c1 [compound 9641, Quinoline-3-carboxylic acid [2-(4-{2-[butyl-(3,4-dimethoxy-benzyl)-amino]-ethyl}-phenylcarbamoyl)-phenyl]-amide] | – | – | 8.72 | – | 1.5 | 17 | 46 | 162 | – | –
COc1cc2c(cc1OC)CN(CCc1ccc(NC(=O)c3cc(N(C)C)ccc3NC(=O)c3cnc4ccccc4c3)cc1)CC2 [compound 9595, Quinoline-3-carboxylic acid (2-{4-[2-(6,7-dimethoxy-3,4-dihydro-1H-isoquinolin-2-yl)-ethyl]-phenylcarbamoyl}-4-dimethylamino-phenyl)-amide] | – | – | 6.43 | – | 1.45 | 1.93 | 2.99 | 45 | – | –
COc1cc2c(cc1OC)CN(CCCc1cccc(NC(=O)c3ccccc3NC(=O)c3cnc4ccccc4c3)c1)CC2 [compound 9660, Quinoline-3-carboxylic acid (2-{3-[3-(6,7-dimethoxy-31 4-dihydro-1H-isoquinolin-2-yi)-propyl]-phenyicarbamoyi}-phenyi)-atnide] | – | – | 5.19 | – | – | 1.1 | 1.2 | 1.4 | – | –
COc1cc2c(cc1OC)CN(CCNC(=O)c1ccccc1NC(=O)c1ccc(-c3ccccc3)cc1)CC2 [compound 9294, Biphenyl-4-carboxylic acid {2-[2-(6,7-dimethoxy-3,4-dihydro-1H-isoquinolin-2-yl)-ethylcarbamoyl]-phenyl}-amide] | – | – | 6.40 | – | – | – | – | – | 18 | 71
COc1ccc(CCN(C)CCc2ccc(NC(=O)c3ccccc3NC(=O)c3cnc4ccccc4c3)cc2)cc1OC [compound 9630, Quinoline-3-carboxylic acid {2-[4-(2-{[2-(3,4-dimethoxy-phenyl)-ethyl]-methyl-amino}-ethyl)-phenylcarbamoyl]-phenyl}-amide] | – | – | 6.63 | – | 1 | 2 | 6 | 26 | – | –
COc1cc2c(cc1OC)CN(CCc1ccc(NC(=O)c3cscc3NC(=O)c3cnc4ccccc4c3)cc1)CC2 [compound 9616, Quinoline-3-carboxylic acid (4-{4-[2-(6,7-dimethoxy-3,4-dihydro-1H-isoquinolin-2-yl)-ethyl]-phenylcarbamoyl}-thiophen-3-yl)-amide] | – | – | 6.95 | – | 13 | 142 | 143 | 185 | – | –
CN(CCc1ccc(NC(=O)c2ccccc2NC(=O)c2cnc3ccccc3c2)cc1)Cc1ccc2c(c1)OCCO2 [compound 9645, Quinoline-3-carboxylic acid [2-(4-{2-[(2,3-dihydro-benzo [1,4]dioxin-6-ylmethyl)-methyl-amino]-ethyl}-phenylcarbamoyl)-phenyl]-amide] | – | – | 6.75 | – | 1.0 | 1.3 | 2.1 | 7.2 | – | –
COc1ccc(CN(C)CCc2ccc(NC(=O)c3ccccc3NC(=O)c3cnc4ccccc4c3)cc2)cc1OC(C)C [compound 9639, Quinoline-3-carboxylic acid [2-(4-{2-[(3-isopropoxy-4-methoxy-benzyl)-methyl-amino]-ethyl}-phenylcarbamoyl)-phenyl]-amide] | – | – | 6.97 | – | 2.6 | 34 | 78 | 136 | – | –
Cc1ccc(CN(C)CCc2ccc(NC(=O)c3ccccc3NC(=O)c3cnc4ccccc4c3)cc2)cc1C [compound 9631, Quinoline-3-carboxylic acid [2-(4-{2-[(3,4-dimethyl-benzyl)-methyl-amino]-ethyl}-phenylcarbatnoyl)-phenyl]-amide] | – | – | 6.17 | – | 1 | 9 | 20 | 67 | – | –
COc1cc2c(cc1OC)CN(CCc1ccc(NC(=O)c3cscc3NC(=O)c3ccc(C)nc3)cc1)CC2 [compound 9617, N-(4-{4-[2-(6,7-Dimethoxy-3,4-dihydro-1H isoquinolin-2-yl)-ethyl]-phenylcarbamoyl}-thiophen-3-yl)-6-methyl-nicotinamide] | – | – | 6.69 | – | 1.5 | 4 | 15 | 81 | – | –
COc1ccc(CN(C)CCc2ccc(NC(=O)c3ccc(Cl)cc3NC(=O)c3cnc4ccccc4c3)cc2)cc1OC [compound 9663, Quinoline-3-carboxylic acid [5-chloro-2-(4-{2-[(3-4-dimethoxy-benzyl)-methyl-amino]-ethyl}-phenylcarbamoyl)-phenyl]-amide] | – | – | 6.76 | – | 50 | 80 | 74 | 82 | – | –
